Data from patent publication US20070293517A1, “Derivatives Of Chemotherapeutic Agents With A Formaldehyde Releasing Moiety” (RAMOT AT TEL AVIV UNIVERSITY LTD., priority 2004, published 2007).

Legend:
[1] = test system: colon carcinoma cells; test: Viability of colon carcinoma cells (FIG. 12); type: cell-based
Method: (§1) Proliferation assay: cells at a density of 3-5×10^4 cells/ml in 200 μl medium supplemented with 10% FCS were seeded in tissue culture 96-well plates for 24 hours, and were then exposed for 72 hours to a novel derivative of a chemotherapeutic agent (in quadruplicate) as specified. After 3 days, the cells were rinsed with PBS, and fixed with ethanol (70%) for 30 minutes. The ethanol was thereafter discarded, 200 μl of 10 μg/ml HOECHST fluorescent dye (Sigma) solubilized in PBS were added and the fluorescence was measured at 390-460 nm with a FluoStar fluorometer. MTT solution (10 ml of 5 mg/ml MTT (Sigma) in PBS) was added, and the plate was incubated for 3 hours. Formazan crystals were dissolved with 140 ml of 0.04 HCl-isopropanol. The optical density of the wells was measured with a microplate reader at 540 nm.
Apoptosis assay: Cells (2×10^5 cells/ml) were seeded in 24-well plates and incubated with a derivative of a chemotherapeutic agent according to the present embodiments, as specified, for 24 hours. The cells were thereafter collected and double-stained with annexin V-FITC and propidium iodide, according to the manufacturer's instructions (MBL, Japan). Alive, apoptotic and total dead cells were quantitated by flow cytometry using a FACS calibur cytometer (Becton Dickinson).

[2] = test system: MCF-7 DX; test: Proliferation assay, MCF-7 DX cells; type: cell-based, human
Method: Cells: The human breast cancer cell lines MCF-7 and MCF-7 DX, were obtained from Dr. R. Supino (Laboratorio Oncologia, Milano, Italy); the murine 3LLD122 highly metastatic Lewis lung carcinoma cell line was obtained from Dr. Eisenbach L, the Weizmann Inst., Israel. […]
as §1, with “After 3 days, the cells were rinsed with PBS, and fixed with ethanol (70%) for 30 minutes.” left out, “MTT solution (10 ml of 5 mg/ml MTT (Sigma) in PBS) was added, and the plate was incubated for 3 hours. Formazan crystals were dissolved with 140 ml of 0.04 HCl-isopropanol.” left out
(§2) IC50 and IC90 values were determined from the best-fitted curve where the percentages of survival were 50 or 90 respectively.

[3] = test system: MES SA DXS; test: Proliferation assay, MES SA DXS cells; type: cell-based, human
Source text: Cells: The human breast cancer cell lines MCF-7 and MCF-7 DX, were obtained from Dr. R. Supino (Laboratorio Oncologia, Milano, Italy); the murine 3LLD122 highly metastatic Lewis lung carcinoma cell line was obtained from Dr. Eisenbach L, the Weizmann Inst., Israel. The following cell lines were purchased from the ATCC, USA: CT-26, an N-nitroso-N-methylurethane-(NNMU) induced murine (BALB-C) colon carcinoma; Panc02, a mouse (C57/Bl) pancreas adenocarcinoma; HT-49, a human colorectal adenocarcinoma; LS1034, a multidrug resistant human colorectal carcinoma; BxPC-3 human pancreas adenocarcinoma; MES-SA and MES-SA-DXS, human uterine sarcoma sensitive and multidrug resistant, respectively; and Human prostate carcinoma 22RV1, a subclone of CWR22 cells.
The cells were maintained in DMEM growth medium supplemented with 10% heat inactivated fetal calf serum, 2 mM glutamine, penicillin (250 units/ml) and streptomycin (125 μg/ml) in a humidified 5% CO2/air atmosphere at 37° C.
as §1, §2

[4] = test system: various cell lines; test: Dose response studies in various cell lines, absence and presence of semicarbazide; type: cell-based; details: 0.5 mM, absence of chemotherapeutic agents
Method: as §1
Semicarbazide sensitive amine oxidase is a source of formaldehyde and is therefore a marker for the effect of formaldehyde. It has been shown that semicarbazide traps formaldehyde and reduces its concentration inside the cell (Nudelman et al. J. Med. Chem., 2005, 48, 1047-1054). Thus, the critical role of formaldehyde can be confirmed by reversal of formaldehyde-mediated effects by the addition of semicarbazide.
Tables 3 and 4 below, as well as FIGS. 7A, 7B and 8A-8D present the dose response studies performed with various cell lines in the absence and presence of semicarbazide, the formaldehyde trapping agent.

## CCCC(=O)OCn1c(=O)cc[nH]c1=O [AN-439, (2,3-Dihydro-2,6-dioxopyrimidin-1(6H)-yl)methyl butyrate]
[1]
  effect on cancer cell viability (% of control): reduced cell viability in a dose dependent manner

## O=c1cc[nH]c(=O)[nH]1 [uracil, reference compound]
[1]
  effect on cancer cell viability (% of control): no effect

## COc1cccc2c1C(=O)c1c(O)c3c(c(O)c1C2=O)C[C@@](O)(C(=O)CO)C[C@@H]3O[C@H]1C[C@H](N)[C@H](O)[C@H](C)O1 [Doxorubicin]
[2]
  fold more resistant to doxorubicin, MCF-7 DX compared with MCF cells: approximately 7 fold
[2]; Homo sapiens, MCF7/DX, MCF-7 DX, 7 independent experiments
  IC50: 392 ± 40 µM
[3]
  fold decrease in the inhibitory effect on proliferation, MES-SA DXS compared with the isogenetic non-resistant cell line: approximately 30 fold

## NNC(N)=O [Semicarbazide, semicarbazide, reference compound]
[4]
  effect of semicarbazide alone on the cells: did not affect the cells
